The values that follow come from patent publication US20250368667A1, “USP1 INHIBITOR” (Shanghai Qilu Pharmaceutical Research and Development …, priority 2022, published 2025).

The target of this assay is recombinant human His6-USP1/His6-UAF1 composite protein (Homo sapiens (Human), UniProt O94782). Nature of the assay: USP1 enzyme activity detection (Ub-Rho fluorescence). It counts as biochemical. As to conditions: USP1/UAF1, Ub-Rho substrate 300 nM, 1 hour pre-incubation; read-out: IC50 (enzymatic inhibition of USP1).
Sequence of recombinant human His6-USP1/His6-UAF1 composite protein (O94782 whole entry): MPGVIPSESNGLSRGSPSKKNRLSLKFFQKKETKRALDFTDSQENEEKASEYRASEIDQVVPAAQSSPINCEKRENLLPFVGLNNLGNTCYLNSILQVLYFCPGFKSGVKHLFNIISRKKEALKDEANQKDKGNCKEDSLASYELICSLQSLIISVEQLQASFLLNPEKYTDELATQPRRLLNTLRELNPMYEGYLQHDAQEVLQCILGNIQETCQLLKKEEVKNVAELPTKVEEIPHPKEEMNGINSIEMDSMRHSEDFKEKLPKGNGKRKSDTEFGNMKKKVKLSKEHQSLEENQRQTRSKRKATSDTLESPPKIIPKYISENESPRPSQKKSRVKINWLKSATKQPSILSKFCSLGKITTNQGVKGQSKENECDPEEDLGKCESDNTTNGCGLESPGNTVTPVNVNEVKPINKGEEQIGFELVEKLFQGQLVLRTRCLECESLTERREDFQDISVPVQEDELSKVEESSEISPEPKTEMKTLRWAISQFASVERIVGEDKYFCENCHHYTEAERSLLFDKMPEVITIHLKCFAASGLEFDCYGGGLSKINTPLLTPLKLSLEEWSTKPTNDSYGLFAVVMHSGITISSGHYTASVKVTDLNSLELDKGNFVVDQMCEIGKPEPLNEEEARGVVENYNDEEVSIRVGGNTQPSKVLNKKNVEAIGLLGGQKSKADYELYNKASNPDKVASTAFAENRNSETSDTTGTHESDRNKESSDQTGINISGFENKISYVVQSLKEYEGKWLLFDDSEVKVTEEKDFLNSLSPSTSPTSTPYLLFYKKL
Sequence of recombinant human His6-USP1/His6-UAF1 composite protein (Q8TAF3 whole entry partner): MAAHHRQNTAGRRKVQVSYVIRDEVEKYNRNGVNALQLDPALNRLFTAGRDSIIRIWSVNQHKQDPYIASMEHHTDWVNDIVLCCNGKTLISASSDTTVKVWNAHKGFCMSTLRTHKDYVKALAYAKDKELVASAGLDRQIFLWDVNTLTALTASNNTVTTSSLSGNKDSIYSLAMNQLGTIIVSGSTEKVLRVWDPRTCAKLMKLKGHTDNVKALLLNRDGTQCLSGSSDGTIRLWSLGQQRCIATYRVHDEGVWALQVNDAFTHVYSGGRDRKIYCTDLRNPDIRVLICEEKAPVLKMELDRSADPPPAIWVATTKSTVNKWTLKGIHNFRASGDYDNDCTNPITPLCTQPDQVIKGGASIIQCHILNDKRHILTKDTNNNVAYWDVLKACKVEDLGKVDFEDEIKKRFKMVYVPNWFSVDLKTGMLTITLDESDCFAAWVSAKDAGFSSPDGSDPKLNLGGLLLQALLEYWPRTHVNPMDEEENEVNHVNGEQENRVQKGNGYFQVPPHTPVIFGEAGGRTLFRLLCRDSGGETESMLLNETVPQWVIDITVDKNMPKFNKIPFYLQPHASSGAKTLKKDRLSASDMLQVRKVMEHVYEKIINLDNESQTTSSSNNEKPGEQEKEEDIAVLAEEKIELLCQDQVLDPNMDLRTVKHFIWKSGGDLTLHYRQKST

Text: USPli compounds were screened by USP1 enzyme activity detection experiment.
1.1 Experimental materials: recombinant human His6-USP1/His6-UAF1 composite protein. (R&D, catalog number E-568-050): Ubiquitin rhodamine 110 (Ub-Rho) (R&D, catalog number U-555-050); Fluorescent 384-well plate (Perkin Elmer, Art. No. 6007279).
1.2 Test sample: Compounds of table 3 in this application, whose structural formulae and preparation methods are shown in the above examples.
Using Equation (I) to fit data in Excel to obtain the inhibition value;
[formula] • wherein, the maximum signal value represents the luminous signal intensity of the positive control hole without adding the compound of the application; the minimum signal value represents the luminous signal intensity of the negative control hole without enzyme; and the target signal value represents the luminous signal intensity of the Test samples; and • fitting the data in XL-Fit with Equation (II) to obtain IC50 value:
[formula] • wherein Y is the inhibition rate, X is the concentration of the compound; Bottom is the lowest inhibition rate; Top is the highest inhibition rate; and HillSlope is the slope.

By IC50 is commonly meant the concentration that gives 50% inhibition. Regarding `COc1ncnc(C2CC2)c1-c1ncc2c3ccccc3n([C@@H](C)c3ccc(-c4nc(C(F)(F)F)cn4C(C)C)cc3)c2n1` [Compound 13-P1], the IC50 came out at 6.01 nM.
The same measure for `COc1ncnc(C2CC2)c1-c1ncc2c3ccc(C(F)(F)F)cc3n(Cc3ccc(-c4nc(C(F)(F)F)cn4C(C)C)cc3)c2n1` [Compound 8, 2-(4-cyclopropyl-6-methoxypyrimidin-5-yl)-9-(4-(1-isopropyl-4-(trifluoromethyl)-1H-imidazo 1-2-yl)benzyl)-7-(trifluoroethyl)-9H-pyrimido[4,5-b]indole]: 21 nM.
`COc1ncnc(C2CC2)c1-c1ncc2c3ccc(N(C(C)C)S(C)(=O)=O)cc3n(Cc3ccc4c(c3)CCCn3cc(C(F)(F)F)nc3-4)c2n1` [Compound 99]: the IC50 was 3.13 nM.
On to `CCP(=O)(CC)c1ccc2c3cnc(-c4c(OC)ncnc4C4CC4)nc3n(Cc3ccc4c(c3)CCCn3cc(C(F)(F)F)nc3-4)c2c1` [Compound 154], for which the half-maximal inhibitory concentration (IC50) is 6.2 nM.
With `CCn1cc(C(F)(F)F)nc1-c1ccc(Cn2c3cnccc3c3cnc(-c4c(OC)ncnc4C4CC4)nc32)cc1` [Compound 66], the IC50 amounted to 1.62 nM.
In the case of `COc1ccc2c3cnc(-c4c(OC)ncnc4C4CC4)nc3n(Cc3ccc4c(c3)CCCn3cc(C(F)(F)F)nc3-4)c2n1` [Compound 93] it was 2.56 nM.
The same measure for `COc1ncnc(C2CC2)c1-c1ncc2c3cccc(F)c3n(Cc3ccc(-c4nc(C(F)(F)F)cn4C)cc3)c2n1` [Compound 27]: 9.95 nM; for `COc1ncnc(C2CC2)c1-c1ncc2c3ccc(N4CCOCC4)nc3n(Cc3ccc4c(c3)CCCn3cc(C(F)(F)F)nc3-4)c2n1` [Compound 135]: 4.4 nM; for `COc1ncnc(C2CC2)c1-c1ncc2c3cn(C)nc3n(Cc3ccc(-c4nc(C(F)(F)F)c5n4CCC5)c(F)c3)c2n1` [Compound 143]: 4.67 nM.
Consider `COc1ncnc(C2CC2)c1-c1ncc2c3cn(C)nc3n(Cc3ccc(-c4nc(C(F)(F)F)cn4C)cc3)c2n1` [Compound 108], for which the IC50 amounted to 7.52 nM.
`COc1ncnc(C2CC2)c1-c1ncc2c3ccc(C#N)cc3n(Cc3ccc(-c4nc(C(F)(F)F)c5ccccn45)cc3)c2n1` [Compound 126]: the IC50 stood at 7.1 nM.
In the case of `COc1cc(Cn2c3ccccc3c3cnc(-c4c(OC)ncnc4C4CC4)nc32)cc(F)c1-c1nc(C(F)(F)F)cn1C(C)C` [Compound 19], the half-inhibitory concentration (IC50) came out at 8.25 nM.
In the case of `COc1ncnc(C2CC2)c1-c1ncc2c3ccc(P4(=O)CCCC4)cc3n(Cc3ccc(-c4nc(C(F)(F)F)c5n4CCC5)cc3)c2n1` [Compound 142] it was 6.2 nM.
`COc1ncnc(C2CC2)c1-c1ncc2c3ccc(S(N)(=O)=O)cc3n(Cc3ccc(-c4nc(C(F)(F)F)cn4C)cc3)c2n1` [Compound 30]: the IC50 turned out to be 5.71 nM.
In the case of `COc1ccc2c(c1)c1cnc(-c3c(OC)ncnc3C3CC3)nc1n2Cc1ccc(-c2nc(C(F)(F)F)cn2C(C)C)cc1` [Compound 33] it was 26.1 nM; in that of `COc1ncnc(C2CC2)c1-c1ncc2c3cnn(C)c3n(Cc3ccc(-c4nc(C(F)(F)F)cn4C(C)C)cc3)c2n1` [Compound 106], 4.56 nM.
In the case of `CCn1cc(C(F)(F)F)nc1-c1ccc(Cn2c3cc(C(F)(F)F)ccc3c3cnc(-c4c(OC)ncnc4C4CC4)nc32)cc1` [Compound 45] it was 4.4 nM.
As to `COc1ccc2c3cnc(-c4c(OC)ncnc4C4CC4)nc3n(Cc3ccc(-c4nc(C(F)(F)F)cn4C(C)C)cc3)c2c1` [Compound 7, 2-(4-cyclopropyl-6-methoxypyrimidin-5-yl)-9-(4-(1-isopropyl-4-(trifluoromethyl)-1H-imidazo 1-2-yl)benzyl)-7-methoxy-9H-pyrimido[4,5-b]indole], the IC50 is 5.81 nM.
With `COc1ncnc(C2CC2)c1-c1ncc2c3ccccc3n(Cc3ccc(-n4nc(C)cc4C(F)(F)F)cc3)c2n1` [Compound 24], the IC50 turned out to be 35.5 nM.
As to `COc1ncnc(C2CC2)c1-c1ncc2c3ncccc3n(Cc3ccc(-c4nc(C(F)(F)F)cn4C(C)C)cc3)c2n1` [Compound 3, 2-(4-cyclopropyl-6-methoxypyrimidin-5-yl)-9-(4-(1-isopropyl-4-(trifluoromethyl)-1H-imidazo 1-2-yl)benzyl)-9H-pyridino[2′,3′: 4,5]pyrrolo[2,3-d]pyrimidine], the IC50 is 5.55 nM.
In the case of `COc1ncnc(C2CC2)c1-c1ncc2c3ccncc3n(Cc3ccc(-c4nc(C(F)(F)F)c(F)n4C)cc3)c2n1` [Compound 155] it was 26 nM.
In the case of `CCC(c1ccc(-c2nc(C(F)(F)F)cn2C(C)C)cc1)n1c2ccccc2c2cnc(-c3c(OC)ncnc3C3CC3)nc21` (stereo not drawn) [Compound 23], the IC50 is 11.7 nM.
Take `COc1ncnc(C2CC2)c1-c1ncc2c3ccncc3n(C3CCc4cc(-c5nc(C(F)(F)F)cn5C)ccc43)c2n1` (stereo not drawn) [Compound 124]: the IC50 amounted to 38.5 nM.
As for `COc1ncnc(C2CC2)c1-c1ncc2c3ccc(NCCO)nc3n(Cc3ccc4c(c3)CCCn3cc(C(F)(F)F)nc3-4)c2n1` [Compound 97], the 50% inhibitory concentration (IC50) worked out at 2.1 nM.
Take `COc1ncnc(C2CC2)c1-c1ncc2c3ccccc3n(Cc3ccc(-n4nc(C(F)(F)F)cc4C)cc3)c2n1` [Compound 17]: the IC50 was 9.28 nM.
In the case of `COc1ncnc(C2CC2)c1-c1ncc2c3cccc(OC)c3n(Cc3ccc(-c4nc(C(F)(F)F)cn4C(C)C)cc3)c2n1` [Compound 46] it was 3.6 nM; in that of `CC(C)c1ccccc1-c1ncc2c3ccncc3n(Cc3ccc(-c4nc(C(F)(F)F)cn4C)cc3)c2n1` [Compound 79], 2.04 nM; in that of `COc1ncnc(C2CC2)c1-c1ncc2c3ccc(C#N)cc3n(Cc3ccc(-c4nc(C(F)(F)F)cn4C)cc3)c2n1` [Compound 21], 4.39 nM.
As to `COc1ncnc(C2CC2)c1-c1ncc2c3ccc(N4CC(O)C4)nc3n(Cc3ccc4c(c3)CCCn3cc(C(F)(F)F)nc3-4)c2n1` [Compound 136], the IC50 came to 1.34 nM.
The same measure for `COc1ncnc(C2CC2)c1-c1ncc2c3cnccc3n(Cc3ccc(-c4nc(C(F)(F)F)cn4C)cc3)c2n1` [Compound 57]: 14.8 nM.
Regarding `COc1ncnc(C2CC2)c1-c1ncc2c3ccc(P(C)(C)=O)cc3n(Cc3ccc4c(c3)CCCn3cc(C(F)(F)F)nc3-4)c2n1` [Compound 96], the IC50 was 4.89 nM.
The same measure for `COc1ncnc(C2CC2)c1-c1ncc2c3cccc(C#N)c3n(Cc3ccc(-c4nc(C(F)(F)F)cn4C)cc3)c2n1` [Compound 26]: 11.5 nM.
Regarding `COc1ncnc(C2CC2)c1-c1ncc2c3ccccc3n([C@H](C)c3ccc(-c4nc(C(F)(F)F)cn4C(C)C)cc3)c2n1` [Compound 13-P2], the concentration for half-maximal inhibition (IC50) stood at 5 nM.
On to `COc1ncnc(C2CC2)c1-c1ncc2c3ccnc(F)c3n(Cc3ccc(-c4nc(C(F)(F)F)cn4C)cc3)c2n1` [Compound 116], for which the 50% inhibitory concentration (IC50) came out at 6.48 nM.
The same measure for `CCOc1cc(C(F)(F)F)nn1-c1ccc(Cn2c3ccccc3c3cnc(-c4c(OC)ncnc4C4CC4)nc32)cc1` [Compound 10, 2-(4-cyclopropyl-6-methoxypyrimidin-5-yl)-9-(4-(5-ethoxy-3-(trifluoromethyl)-1H-pyrazol-1-yl)benzyl)-9H-pyrimido[4,5-b]indole]: 17.8 nM; for `CCn1cc(C(F)(F)F)nc1-c1ccc(Cn2c3cc(C#N)ccc3c3cnc(-c4c(OC)ncnc4C4CC4)nc32)cc1` [Compound 50]: 4.84 nM; for `COc1ncnc(C2CC2)c1-c1ncc2c3cn(C)nc3n(Cc3ccc(-c4nc(C(F)(F)F)cn4C(C)C)c(F)c3)c2n1` [Compound 107]: 4.65 nM.
Consider `COc1ncnc(C2CC2)c1-c1ncc2c3ccc(NS(C)(=O)=O)cc3n(Cc3ccc(-c4nc(C(F)(F)F)cn4C)cc3)c2n1` [Compound 59], for which the IC50 is 7.21 nM.
As to `COc1ncnc(C2CC2)c1-c1ncc2c3ccc(C(F)F)cc3n(Cc3ccc(-c4nc(C(F)(F)F)cn4C)cc3)c2n1` [Compound 40], the half-inhibitory concentration (IC50) came to 15.1 nM.
With `COc1ncnc(C2CC2)c1-c1ncc2c3ccc(CS(C)(=O)=O)cc3n(Cc3ccc4c(c3)CCCn3cc(C(F)(F)F)nc3-4)c2n1` [Compound 83], the IC50 came out at 4.62 nM.
In the case of `COc1ncnc(C2CC2)c1-c1ncc2c3cn(C)nc3n(Cc3ccc(-c4nc(C(F)(F)F)c5n4CCOC5)cc3)c2n1` [Compound 139] it was 23.5 nM; in that of `COc1ncnc(C2CC2)c1-c1ncc2c3ccncc3n(Cc3ccc4c(c3)OCCn3cc(C(F)(F)F)nc3-4)c2n1` [Compound 76], 25.3 nM; in that of `COc1ncnc(C2CC2)c1-c1ncc2c3ccc(C#N)cc3n(Cc3cc4c(cn3)-c3nc(C(F)(F)F)cn3CCC4)c2n1` [Compound 119], 17.8 nM.
In the case of `COc1ncnc(C2CC2)c1-c1ncc2c3ccncc3n(Cc3ccc4n3CCCn3cc(C(F)(F)F)nc3-4)c2n1` [Compound 68] it was 39.2 nM; in that of `COc1ncnc(C2CC2)c1-c1ncc2c3cccnc3n(Cc3ccc4c(c3)Cn3cc(C(F)(F)F)nc3-4)c2n1` [Compound 72], 42.9 nM.
Take `COc1ncnc(C2CC2)c1-c1ncc2c3ccc(C(C)(C)O)cc3n(Cc3ccc(-c4nc(C(F)(F)F)cn4C)cc3)c2n1` [Compound 38]: the IC50 was determined as 12.1 nM.
With `COc1ncnc(C2CC2)c1-c1ncc2c3ccccc3n(Cc3ccc(-c4nc(C(F)(F)F)cn4C(C)C)nc3)c2n1` [Compound 16], the IC50 came to 7.55 nM.
In the case of `COc1ncnc(C2CC2)c1-c1ncc2c3cccc(F)c3n(Cc3ccc(-c4nc(C(F)(F)F)cn4C(C)C)cc3)c2n1` [Compound 6, 2-(4-cyclopropyl-6-methoxypyrimidin-5-yl)-8-fluoro-9-(4-(1-isopropyl-4-(trifluoromethyl)-1H-imidazol-2-yl)benzyl)-9H-pyrimido[4,5-b]indole], the IC50 came out at 6.07 nM.
Take `CC(C)n1ncc(Cl)c1-c1ncc2c3ccccc3n(Cc3ccc(-c4nc(C(F)(F)F)cn4C)cc3)c2n1` [Compound 20]: the IC50 worked out at 3.26 nM.
In the case of `COc1ncnc(C2CC2)c1-c1ncc2c(n1)n(Cc1ccc(-c3nc(C(F)(F)F)cn3C(C)C)cc1)c1nccn21` [Compound 32] it was 19.1 nM; in that of `COc1ncnc(C2CC2)c1-c1ncc2c3ccccc3n(Cc3ccc(-c4nc(C(F)(F)F)cn4C(C)C)cc3)c2n1` [Compound 2, 2-(4-cyclopropyl-6-methoxypyrimidin-5-yl)-9-(4-(1-isopropyl-4-(trifluoromethyl)-1H-imidazo 1-2-yl)benzyl)-9H-pyrimido[4,5-b]indole], 7.55 nM.
